Experimental findings from patent US20230220006A1, “REGENTIDE-034 AND COMPOSITION FOR IMPROVING CONDITION OF SKIN, CONTAINING SAME” (NI[…]., LTD., priority 2020, published 2023) are described below.

In data set [1] the test system is HaCaT cells. Description: Cytotoxicity evaluation (CCK8) in epidermal keratinocytes. The format is cell-based, human. The conditions noted are these: 5 µM or 10 µM, 48 hours, FBS-free medium. Here is the method:
(§1) The cytotoxicity of Regentide-034 prepared in Example 1 above was evaluated. Specifically, cytotoxicities were measured in HaCaT cells, which are human epidermal keratinocytes, and CCD-986Sk, which is human fibroblasts. Keratinocytes were dispensed at 3 × 10^3 cells/well and fibroblasts were dispensed at 5 × 10^3 cells/well in a 96-well plate, and then cultured in cell culture conditions for 24 hours in a medium containing 10% FBS. After culturing, 5 µM or 10 µM of Regentide-034 was added to an FBS-free medium, and this was cultured for 48 hours. Thereafter, 10 µl per well of CCK8 reaction solution (Dojindo Molecular Technologies, Kumamoto, Japan) was treated and reacted for 4 hours, and then absorbance was measured at 450 nm. The average absorbance value for each sample group was obtained, and the cell viability was evaluated by comparing it with the absorbance value of cells that had not been treated with Regentide-034 as a control group.

Data set [2] relates to CCD-986Sk. Description: Cytotoxicity evaluation (CCK8) in fibroblasts. It counts as cell-based, human. To be noted: 5 µM or 10 µM, 48 hours, FBS-free medium. On the procedure:
as §1

Where a SMILES comes first, the peptide text is derived from it.

Turning to `C[C@H](N)C(=O)N[C@@H](Cc1ccc(O)cc1)C(=O)NCC(=O)N[C@@H](CS)C(=O)N[C@@H](Cc1ccc(O)cc1)C(=O)N[C@@H](CS)C(=O)NCC(=O)N[C@@H](Cc1c[nH]c2ccccc12)C(=O)NCC(=O)NCC(N)=O` [Regentide-034, AYGCYCGWGG-NH2] (H-AYGCYCGWGG-NH2), the “cytotoxicity (cell viability) to epidermal keratinocytes” value in data set [1] was “not toxic”. Moreover, the “cytotoxicity (cell viability) to fibroblasts” value in data set [2] was “not toxic”.
